1 compound from US11160489B2, “Wireless optofluidic systems for programmable in vivo pharmacology and optogenetics” (THE BOARD OF TRUSTEES OF THE UNIVERSITY OF ILLINOIS, priority 2015, dated 2021) can be followed below.

“Also recorded” adds a separate entry of the source.

The experiment concerns the target T1, μ-opioid receptor (MOPR) (Mus musculus, UniProt P42866).
T1 construct: from tissue; host or cells: ventral tegmental area of living wild-type C57Bl6 mice (in vivo)
Description: Contraversive rotation/locomotor testing assay after wireless intra-VTA infusion. In kind it is in vivo. As to conditions: 200 pmol, wireless unilateral intra-VTA infusion, within-subject vs ACSF vehicle, wild-type mice, n=7.
Description: As a proof-of-principle within-subject in vivo pharmacology experiment, two chambers of each device were loaded with different pharmacological agents; one with the synthetic opioid peptide and MOPR agonist, [D-Ala^2, N-MePhe^4, Gly-ol]-enkephalin (DAMGO, 200 pmol, Tocris), and one with artificial cerebral spinal fluid (ACSF) as a vehicle control. In a counter-balanced design, either the DAMGO or vehicle was wirelessly delivered into the VTA of freely behaving animals over a distance of ˜1 m away from the animal (FIGS. 88, A and B).
After the mice were acclimatized to the holding facility for seven to nine days, they were anaesthetized in an induction chamber (4% Isolflurane) and placed in a stereotaxic frame (Kopf Instruments, Model 1900) where they were maintained at 1-2% isoflurane. […] For the DAMGO-induced rotation experiment, mice were implanted with the microfluidic device above the VTA (stereotaxic coordinates from bregma (mm): AP:-3.10, ML: +/−0.50, DV: −4.25). […] A standard electrode holder (KOPF 1770) was adapted to implant the microfluidic and optofluidic devices. […] The implants were secured using two bone screws (CMA, 743102) and affixed with dental cement (Lang Dental). C571Bl6 mice were allowed to recover for 5 days prior to behavioral testing.
C571Bl6 mice with microfluidic devices implanted above the VTA were placed in the center of the same arena used for the OFT and allowed to roam freely for 1 hr. Wireless infusion of vehicle or DAMGO was initiated and movements were video recorded and analyzed using Ethovision. Rotations were defined as full 360° revolutions in the path of movement.

T1 sequence (P42866 whole entry): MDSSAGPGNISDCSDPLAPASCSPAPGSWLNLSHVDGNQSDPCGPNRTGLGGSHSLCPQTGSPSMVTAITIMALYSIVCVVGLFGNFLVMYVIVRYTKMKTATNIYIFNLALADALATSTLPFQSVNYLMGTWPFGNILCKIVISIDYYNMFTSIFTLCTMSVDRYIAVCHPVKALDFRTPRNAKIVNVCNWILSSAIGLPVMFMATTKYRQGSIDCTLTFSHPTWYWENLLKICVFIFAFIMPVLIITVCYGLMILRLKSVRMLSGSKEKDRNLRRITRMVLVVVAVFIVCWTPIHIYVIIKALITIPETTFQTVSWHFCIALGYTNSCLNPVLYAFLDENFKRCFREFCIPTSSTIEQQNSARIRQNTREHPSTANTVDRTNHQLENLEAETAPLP

With `C[C@@H](NC(=O)[C@@H](N)Cc1ccc(O)cc1)C(=O)NCC(=O)N(C)[C@@H](Cc1ccccc1)C(=O)NCCO` [DAMGO, [D-Ala^2, N-MePhe^4, Gly-ol]-enkephalin], the “contraversive 360° rotations” value was “significant increase; also recorded: stereotypical rotations contralateral to injection site” and the overall locomotor activity entry is given as “significant increase; also recorded: robust increase in overall locomotor activity”.
